# Assay results taken from US11319300B2, “Polyfluoro-substituted aromatic heterocyclic derivative, pharmaceutical composition containing same, and applications thereof” (ZHEJIANG UNIVERSITY, priority 2017, dated 2022).
# What was measured:
# [1] = target: PKA (Homo sapiens, UniProt P17612); experiment: Kinase selectivity assay (Caliper), PKA; type: biochemical; details: PKA versus Akt1
# Procedure: (§1) A Sixty-Second Embodiment: Kinase Selectivity Assay Test Compound Configuration 1) DMSO was configured with 50× compound stock solution for use. 2) Each compound was diluted in a 96-well plate at a concentration gradient of 5 to 7 to ensure a drug volume of 10 μl per well, to 6 to 7 concentrations, while 100 μl of DMSO was added as a blank control group, and a negative control group without an enzyme substrate was added. 3) Another 96-well plate was prepared, and 10 μl of the above compound was added to 90 μl of 1×kinase base buffer and mixed for 10 min. The board to be tested was prepared: 1) Take a mixture of 5 μl to 384-well plates in a 96-well plate of the above configuration, and per compound has two replicate wells. Kinase Reaction: 1) Configurate a 2.5×kinase solution and add the corresponding 1×kinase base buffer; 2) Configurate a 2.5× polypeptide solution, add a FAM-labeled polypeptide and ATP in a 1×kinase base buffer; 3) 10 μl of 2.5× kinase solution was added to the 384-well plate to be tested, put at room temperature for 10 min, then 10 μl of 2.5× polypeptide solution was added, and after reacting at 28° C. for 1 h, 25 μl of reaction stop buffer was added. The Caliper program reads the plate and uses the data to obtain the IC50 value of the corresponding compound inhibiting kinase. […]
# [2] = test system: PKC; experiment: Kinase selectivity assay (Caliper), PKC; type: biochemical; details: PKC versus Akt1
# Procedure: as §1
# [3] = target: T1, hERG potassium channel (Homo sapiens, UniProt Q12809); experiment: hERG potassium channel inhibition, manual whole-cell patch clamp in CHO hERG cells; type: cell-based; details: 3 μM, CHO hERG cells, patch clamp
# T1 construct: host or cells: CHO
# Procedure: A Sixty-Third Embodiment: hERG Potassium Channel Inhibition Activity Experiment
# The cells used in this assay were CHO cell lines transfected with hERG cDNA and stably expressing the hERG channel (supplied by Sophion Bioscience, Denmark). The cells were cultured in medium containing the following components (all from Invitrogen): Ham's F12 medium, 10% (v/v) inactivated fetal bovine serum, 100 μg/ml hygromycin B, and 100 μg/ml Geneticin. 2.1.2CHO hERG cells were grown in a Petri dish containing the above culture solution, and cultured in an incubator containing 5% of CO2 at 37° C. 24 to 48 hours prior to electrophysiological experiments, CHO hERG cells were transferred to circular glass slides placed in petri dishes and grown under the same culture and culture conditions as above. The density of CHO hERG cells on each circular slide requires that most cells achieve independent, individual requirements.
# 2. Compound Treatment and Dilution
# To obtain the IC50 of the compound, we selecte the following concentrations (30, 10, 3, 1, 0.3, and 0.1 μM) for testing. Prior to testing, the […] were first diluted to 10, 3, 1, 0.3, and 0.1 mM stock solution in gradual dilution with DMSO and then diluted to the final μM test concentration with extracellular fluid. The final concentration of DMSO in each of the other compound solutions was 0.1% except that the DMSO concentration in the 30 μM compound test solution was 0.3%. The positive control Cisapride (cishabili) was tested at a concentration of 0.1 μM. All compound solutions were sonicated and shaken for 5 to 10 minutes to ensure complete dissolution of the compound.
# 3. Electrophysiological Recording System and Data Analysis
# This experiment uses a manual patch clamp system (HEKA EPC-10 signal amplifier and digital conversion system, purchased from HEKA Electronics, Germany) for the recording of whole cell currents. Round slide with CHO hERG cells on the surface was placed in an electrophysiology recording cell under an inverted microscope. The extracellular fluid was continuously perfused in the recording tank (about 1 ml per minute). The experimental procedure uses conventional whole-cell patch clamp current recording techniques. Unless otherwise stated, the experiments were carried out at regular room temperature (˜25° C.). The cells were clamped at a voltage of −80 mV. The cell clamp voltage was depolarized to +20 mV to activate the hERG potassium channel, and after 5 seconds it was clamped to −50 mV to eliminate inactivation and generate tail current. The tail current peak was used as the value of the hERG current magnitude. After the hERG potassium current recorded in the above step was stabilized under the continuous extracellular fluid perfusion in the recording tank, the drug to be tested can be superimposed and filled until the inhibitory effect of the drug on the hERG current reaches a steady state. Generally, the recent three consecutive current recording lines were recombined as a criterion for judging whether or not the state is stable. After reaching a steady state, extracellular fluid perfusion rinse until hERG current returns to the size before adding drug. One cell can test one or more drugs, or multiple concentrations of the same drug, but need to be flushed with extracellular fluid between different drugs. Cisapride (cisapride, purchased from Sigma) was used in the experiment as a positive control to ensure that the cells used were of normal quality. The test data was analysed by HEKA Patchmaster, Microsoft Excel and data analysis software provided by Graphpad Prism.
# [4] = target: T2, AKT1/PKBα (Homo sapiens, UniProt P31749); experiment: Akt1 enzyme inhibitory activity, AKT1/PKBα KinEASE FP Fluorescein Green Assay; type: biochemical; details: fluorescence polarization kit assay; read-out: Akt1 IC50 (grade)
# T2 construct: purchased
# Procedure: Compound AZD5363 (NCT02208375, NCT02208375, NCT01625286), which have entered the clinical phase II study, was used as a positive control, and the compound was assayed against common tumour cell lines (human ovarian cancer cell line OVCAR-8 and human colon cancer cell line HCT-116) by MTT assay, at the same time, the akt1 enzyme inhibitory activity (IC50) was evaluated using a commercial Akt1 kit.
# 2) Test method for the inhibitory activity of the compound of the present invention against Akt1 enzyme:
# The AKT1/PKBα KinEASE™ FP Fluorescein Green Assay (Kinase Green Fluorescence Detection System) was used to detect the inhibitory activity of the compound on AKT1/PKBα.
# Fluorescence polarization detection protein kinase B employs the principle of a competitive reaction: a fluorescently labeled phosphorylated tracer and an unlabeled phosphorylated product produced by the reaction of protein kinase B will compete with the anti-serine antibody for binding. In a reaction mixture […], when a part of the fluorescent tracer binds to the antibody, it causes a higher polarization value. However, in the reaction solution mixture containing the phosphorylated product, less tracer binds to the antibody (the fluorescent tracer was replaced from the antibody) and the emitted signal was depolarized. Therefore, the change in polarization was directly related to the activity of protein kinase B in the reaction.
# The compound of the present invention and the positive control AZD5363 were dissolved in dimethyl sulfoxide (DMSO) and diluted to a concentration of 50 μM. At room temperature, 0.25 μl of the compound sample and the positive control at a concentration of 50 μM were taken and added to the 384-well plate, and three parallel wells were set for each sample, and then 10 μl of STK Substrate 3, Working Solution, 5 μl AKT1/PKBα Working Solution, 10 μl ATP Working Solution were added to each sample well plate with vibrating gently and shaking for a few minutes. The reaction starts after 10 μl of ATP Working Solution was added to the well, and the reaction was timed at room temperature for 1 hour. After one hour, 5 μl of STK Stop Mix and 5 μl of STK Antibody Mix were added to each well respectively to stop the reaction. After the addition completes, it was allowed to stand at room temperature for four hours, and the polarization value of the sample was detected by the fluorescence polarization of the microplate reader (it was effective to detect its signal within 24 hours), and the inhibition rate of the compound was calculated by the polarization value, and then IC50 was calculated.
# Four sets of controls were set in the experiment, namely Buffer Control Wells, Tracer Control Wells, No Enzyme Wells, and a blank dimethyl sulfoxide control. The resulting data was used to calculate the inhibition rate.
# The activity of the compound was divided into three grades according to the size of the IC50 of the Akt inhibitory activity: “+++”, 1 nM<IC50<10 nM; “++”, 10 nM<IC50<50 nM; “+”, 50 nM<IC50.
# [5] = test system: HGC27; experiment: Tumour cell proliferation inhibition, MTT assay, HGC27; type: cell-based, human; details: Homo sapiens, HGC-27, 72 h
# [6] = test system: CEM-C1; experiment: Tumour cell proliferation inhibition, MTT assay, CEM-C1; type: cell-based, human; details: Homo sapiens, CEM/C1, 72 h
# [7] = target: Akt2 (Homo sapiens, UniProt P31751); experiment: Kinase selectivity assay (Caliper), Akt2; type: biochemical; details: Akt2 versus Akt1
# Procedure: as §1
# [8] = target: Akt3 (Homo sapiens, UniProt Q9Y243); experiment: Kinase selectivity assay (Caliper), Akt3; type: biochemical; details: Akt3 versus Akt1
# Procedure: as §1
# T1 sequence (Q12809 whole entry): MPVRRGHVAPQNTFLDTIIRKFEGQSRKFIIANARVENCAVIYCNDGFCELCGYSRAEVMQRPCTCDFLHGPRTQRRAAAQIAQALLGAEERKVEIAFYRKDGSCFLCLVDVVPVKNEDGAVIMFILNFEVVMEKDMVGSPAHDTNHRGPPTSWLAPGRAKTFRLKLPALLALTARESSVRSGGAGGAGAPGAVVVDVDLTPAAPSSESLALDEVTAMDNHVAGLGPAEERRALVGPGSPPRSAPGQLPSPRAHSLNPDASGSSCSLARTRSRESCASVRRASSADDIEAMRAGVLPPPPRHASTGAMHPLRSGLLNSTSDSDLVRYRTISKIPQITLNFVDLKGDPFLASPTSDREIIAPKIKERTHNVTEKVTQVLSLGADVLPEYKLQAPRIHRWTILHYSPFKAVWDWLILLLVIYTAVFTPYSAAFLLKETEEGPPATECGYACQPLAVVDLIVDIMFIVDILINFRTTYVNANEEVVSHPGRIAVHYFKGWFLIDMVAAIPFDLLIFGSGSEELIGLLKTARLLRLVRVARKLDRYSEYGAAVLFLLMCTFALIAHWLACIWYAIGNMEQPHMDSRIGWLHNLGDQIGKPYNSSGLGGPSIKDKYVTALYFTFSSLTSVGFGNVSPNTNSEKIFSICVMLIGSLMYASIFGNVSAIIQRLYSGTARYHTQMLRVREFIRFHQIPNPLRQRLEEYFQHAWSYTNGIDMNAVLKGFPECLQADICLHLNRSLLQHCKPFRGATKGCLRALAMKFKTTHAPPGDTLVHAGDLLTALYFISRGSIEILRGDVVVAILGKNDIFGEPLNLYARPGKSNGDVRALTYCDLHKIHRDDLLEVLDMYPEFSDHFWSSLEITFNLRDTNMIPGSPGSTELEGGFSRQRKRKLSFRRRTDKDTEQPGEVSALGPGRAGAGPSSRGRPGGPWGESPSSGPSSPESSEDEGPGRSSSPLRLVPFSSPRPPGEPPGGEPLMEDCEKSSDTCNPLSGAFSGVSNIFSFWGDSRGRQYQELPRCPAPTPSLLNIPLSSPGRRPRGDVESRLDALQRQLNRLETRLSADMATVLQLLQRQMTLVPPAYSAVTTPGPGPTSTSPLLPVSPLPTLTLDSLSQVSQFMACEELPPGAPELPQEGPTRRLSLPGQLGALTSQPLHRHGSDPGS
# Sequence of Akt3 (Q9Y243 whole entry): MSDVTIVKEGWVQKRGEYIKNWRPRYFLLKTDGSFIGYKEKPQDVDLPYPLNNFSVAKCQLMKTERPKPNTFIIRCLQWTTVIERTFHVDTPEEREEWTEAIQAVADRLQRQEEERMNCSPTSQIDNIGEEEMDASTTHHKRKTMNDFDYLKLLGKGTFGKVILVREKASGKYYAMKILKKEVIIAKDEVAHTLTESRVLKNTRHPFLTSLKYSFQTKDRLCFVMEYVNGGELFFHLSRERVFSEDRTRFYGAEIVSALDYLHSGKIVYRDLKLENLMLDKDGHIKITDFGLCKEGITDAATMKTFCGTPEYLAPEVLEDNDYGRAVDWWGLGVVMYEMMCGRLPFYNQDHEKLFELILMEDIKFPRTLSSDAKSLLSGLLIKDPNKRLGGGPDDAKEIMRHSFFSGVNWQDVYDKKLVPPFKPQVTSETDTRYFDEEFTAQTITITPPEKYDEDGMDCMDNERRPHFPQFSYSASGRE
# T2 sequence (P31749 whole entry): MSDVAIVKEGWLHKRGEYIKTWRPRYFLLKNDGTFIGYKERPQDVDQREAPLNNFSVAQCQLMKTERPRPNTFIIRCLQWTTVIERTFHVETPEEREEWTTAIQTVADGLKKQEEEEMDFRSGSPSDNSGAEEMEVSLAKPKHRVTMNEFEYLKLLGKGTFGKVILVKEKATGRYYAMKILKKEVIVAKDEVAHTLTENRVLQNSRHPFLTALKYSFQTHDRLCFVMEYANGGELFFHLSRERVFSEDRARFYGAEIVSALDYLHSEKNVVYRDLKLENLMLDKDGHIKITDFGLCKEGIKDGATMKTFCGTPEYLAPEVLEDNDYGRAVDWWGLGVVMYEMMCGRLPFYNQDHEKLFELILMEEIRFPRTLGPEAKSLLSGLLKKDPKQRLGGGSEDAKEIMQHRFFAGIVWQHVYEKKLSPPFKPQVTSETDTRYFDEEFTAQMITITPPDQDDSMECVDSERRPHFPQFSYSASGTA
# Sequence of Akt2 (P31751 whole entry): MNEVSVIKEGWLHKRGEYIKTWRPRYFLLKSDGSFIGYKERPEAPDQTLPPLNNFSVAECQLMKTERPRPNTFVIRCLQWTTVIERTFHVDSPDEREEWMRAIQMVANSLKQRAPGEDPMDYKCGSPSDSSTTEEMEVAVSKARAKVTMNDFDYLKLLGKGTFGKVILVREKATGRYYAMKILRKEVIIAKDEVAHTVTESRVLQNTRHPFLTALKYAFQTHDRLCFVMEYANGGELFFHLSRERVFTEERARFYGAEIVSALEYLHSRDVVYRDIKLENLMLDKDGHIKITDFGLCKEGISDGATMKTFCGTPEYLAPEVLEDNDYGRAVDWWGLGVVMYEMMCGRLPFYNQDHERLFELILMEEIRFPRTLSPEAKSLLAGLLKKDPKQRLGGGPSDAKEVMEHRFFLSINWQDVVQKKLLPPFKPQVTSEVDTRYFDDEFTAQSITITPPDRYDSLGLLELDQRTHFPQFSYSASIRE
Compound,Kinase selectivity: (PKA inhibitory activity IC50)/(Akt1 inhibitory activity IC50) [1],Kinase selectivity: (PKC inhibitory activity IC50)/(Akt1 inhibitory activity IC50) [2],hERG (Inhibition rate at 3 μM concentration) [3] [%],IC50 [4] [µM],IC50 [5] [µM],IC50 [6] [µM],Kinase selectivity: (Akt2 inhibitory activity IC50)/(Akt1 inhibitory activity IC50) [7],Kinase selectivity: (Akt3 inhibitory activity IC50)/(Akt1 inhibitory activity IC50) [8]
"Cn1ncc(Cl)c1-c1cc(C(=O)N[C@H](CN)Cc2ccc(F)c(F)c2)oc1Cl [GSK2141795, reference compound]",1.2-times,28-times,50,,,,,
Cn1nccc1-c1cc(F)c(C(=O)N[C@@H]2CNCC[C@H]2c2ccc(F)c(F)c2)c(F)c1 [VII-12],1.3-times,,,0.01 to 0.05,0.05,0.21,5.5-times,4.1-times
